ChEMBL document CHEMBL1148196, “Isoprenoids of the soft coral Sarcophyton glaucum: Nyalolide, a new biscembranoid, and other terpenoids” (2004)

Legend:
Type in all cases: functional
[1] = system: P388; assay: Cytotoxicity against mouse P388 cells
[2] = system: A549; assay: Cytotoxicity against human A549 cells
[3] = system: HT-29; assay: Cytotoxicity against human HT29 cells
[4] = system: SK-MEL-28; assay: Cytotoxicity against human SK-MEL-28 cells

Measured: GI50

COC(=O)/C1=C\CC/C(C)=C/[C@@H]2OC(=O)C(C)=C2C[C@H](OC(C)=O)/C(C)=C/CC1
10 µM: all assays above

CC(C)=C1C=C2[C@@H](CC[C@@H]2C)[C@@H](C)CC1=O [GUAIACOPHINE]
10 µM: all assays above

COC(=O)[C@]12CC(=O)[C@H](C(C)C)CC(=O)[C@H](C)CCC[C@H](C)CC(=O)[C@H]1CC(C)=C1C[C@H](OC(C)=O)[C@](C)(O)[C@H]3CC[C@@](C)(O)[C@H](CC/C(C)=C/[C@@H]12)O3 [NYALOLIDE]
10 µM: all assays above
